The values below come from a melting point compilation (Tetko et al.; mined from patent text by program, amines drawn as free bases though some values may be those of a salt).

Usually melting point stands for the temperature of the solid-liquid transition.

For `Clc1ccc(C(c2ccccc2)(c2ncc[nH]2)c2ncc[nH]2)cc1`, the melting point worked out at 140 °C.

`O=C(CNc1ccccc1)Nc1c(Cl)cccc1C(=O)O` had a melting point of 184 to 185 °C.

`CSC1=Nc2ccc(C)cc2Cn2nnnc21` showed a melting point of 157 to 160 °C.

`CCC(=O)C1CCC2C3CCC4CC(=O)CCC4(C)C3C(=O)CC12C` (stereo unspecified): the melting point was 148 °C.

`O=S(=O)(CC(O)(CI)c1ccccc1)c1ccccc1` (stereo unspecified) gave a melting point of 98 °C.

Turning to `ClCCCOc1ccc(-c2cnc(CSCCOc3ccccc3)o2)cc1`, the melting point was 71 to 73 °C.

Take `CC(=O)OCC(C)(C)C(Cl)CC(Cl)(Cl)Cl` (stereo unspecified): the melting point was in the range of 56 to 58 °C.

Turning to `N#CCCNC(=O)c1cccc(-c2ccc3c(c2)C(Oc2ccc(Cl)cc2Cl)CC3)c1` (stereo unspecified), the melting point lay in the range of 139 to 145 °C.

As for `NC(=O)c1ccc(C(=O)Nc2ccc(-n3nc(C(F)(F)F)cc3C(F)(F)F)cc2)cc1`, the melting point was in the range of 290 to 291 °C.

With `Oc1ccc(CCCCn2cncn2)cc1`, the melting point lay in the range of 135 to 136 °C.

In the case of `CC1(c2ccc(F)cc2)OC(C=Cc2ccsc2)=CC1=O` (stereo unspecified), the melting point was 97 to 98 °C.

In turn, `CC(C)Nc1cccnc1N1CCN(C(=O)c2ccc(C(=O)N3CCN(C)CC3)cc2)CC1` returned a melting point of 158 to 160 °C.

Consider `CNc1cc(Cl)cc(Cl)c1[N+](=O)[O-]`, for which the melting point stood at 120 °C.

As for `OCCNc1ccnc2ccccc12`, the melting point was in the range of 152 to 154 °C.

`CCN1CCCCC1CCc1ccccc1NC(=O)c1ccc(OC)cc1` (stereo unspecified): the melting point fell in the range of 136 to 138 °C.

Turning to `CNC(=O)n1nc(Oc2ncc(C(F)(F)F)cc2Cl)cc1C(F)(F)F`, the melting point lay in the range of 61 to 63 °C.

Consider `O=C1N(c2ccc(Br)cc2F)C(=S)C2CCCCC12O` (stereo unspecified), for which the melting point was in the range of 163 to 164 °C.

Compound `COc1ccc(CCc2nnc(-c3ccc4occc4c3)o2)cc1` gave a melting point of 127 to 128 °C.

Compound `CSc1ccc(NS(=O)(=O)c2ccc(C)cc2)c([N+](=O)[O-])c1` showed a melting point of 116 to 117 °C.

In turn, `Cc1nc2c(N)nc3ccccc3c2n1CCCCNS(C)(=O)=O` showed a melting point of 229 to 230 °C.

For `CN(OCc1ccccc1)C(=O)Nc1cccc(S(C)(=O)=O)c1`, the melting point is 110 to 111 °C.

`CC(=NOCCO)c1ccc(-c2ccccc2)nc1` returned a melting point of 76 °C.

`NS(=O)(=O)c1cc(C(=O)c2ccc3c(c2)CCC3)ccc1Cl` returned a melting point of 164 to 166 °C.

In turn, `CCCCOc1c(CNC(=O)OC(C)(C)C)n(CC(C)C)c(=O)c2ccc(-c3nnn[nH]3)cc12` had a melting point of 152 to 153 °C.

Take `COC(=O)C1=C(C(OC)OC)NC(C)=C(C(=O)OCC(C)C)C1c1ccccc1C#N` (stereo unspecified): the melting point is 126 to 128 °C.

Compound `CCOP(=O)(/C=C/c1cn(-c2ccccc2)nc1OCc1ccc(OCc2nc(-c3ccco3)oc2C)nc1)OCC` gave a melting point of 134 to 135 °C.

`OCC(CO)c1cccc2ccccc12` registered a melting point of 58 to 60 °C.

The compound `O=C(Nc1ccc(CN2CCNCC2)cc1)c1cc(=O)c2ccccc2o1` showed a melting point of 138 to 140 °C.

Take `O=C(N[C@H]1CC[C@H](CCN2CCC(c3ccc(F)c4occc34)CC2)CC1)C1CCOCC1`: the melting point is 208 °C.

The compound `O=C(O)c1ccc(-n2cc3ccccc3n2)cc1` had a melting point of 286 to 288 °C.

With `CCCCCCN(CCCCCC)c1ccc(C=CC2=C(C#N)C(=C(C#N)C#N)OC2(C)C)s1`, the melting point worked out at 172 °C.

`CC1CC(C)(C)c2ccc(O)cc2O1` (stereo unspecified) gave a melting point of 97 to 98 °C.

`CC(=O)c1cc(=O)n(CCC(C(=O)NO)N(C)S(=O)(=O)c2ccc(Oc3ccccc3)cc2)c(=O)[nH]1` (stereo unspecified) had a melting point of 167 to 169 °C.

`CC(C)OC1C=CC(=O)N1S(=O)(=O)c1ccccc1` (stereo unspecified) came in with a melting point of 148 to 149 °C.

`CCn1c(=O)c(-c2cc(OC)cc(OC)c2)cc2cnc(Nc3ccncc3)nc21`: the melting point fell in the range of 305 to 307 °C.

On to `CN(C)CCCN=C1CC(c2ccc(C(F)(F)F)cc2)Cc2[nH]c3ccc(Cl)cc3c(=O)c21` (stereo unspecified), for which the melting point lay within 211 to 213 °C.

Consider `COc1ccc(C2(C=O)CCC(=O)CC2)cc1OC1CCCC1`, for which the melting point lay in the range of 55 to 57 °C.

Regarding `CCOC(=O)NC(=S)C1=C(N2CCOCC2)CCC1`, the melting point fell in the range of 114 to 118 °C.

On to `CONC(=O)c1cc(C(=O)OC)c2cc(Cc3ccc(F)cc3)cnc2c1O`, for which the melting point lay within 186 to 188 °C.

As to `COc1nc(NS(=O)(=O)c2ccccc2Cl)nc(OC)n1`, the melting point came out at 137 °C.

For `Cc1nc2c3c(c(C(=O)NC4CC4)cc2n1C)CCC(c1ccccc1)O3` (stereo unspecified), the melting point fell in the range of 312 to 313 °C.

With `O=C(NO)c1ccc(C(=O)NOCCCc2ccccc2)cc1`, the melting point was in the range of 179 to 181 °C.

With `CC1CC(n2ccc(-c3ccc(F)cc3)c2-c2ccncc2)CCN1` (stereo unspecified), the melting point is 173 to 175 °C.

`c1csc(C2NCCNCc3ccccc32)c1` (stereo unspecified) yielded a melting point of 148 °C.

Consider `COc1ccc(-c2csc(C)n2)cc1OC1CC2CCC1C2` (stereo unspecified), for which the melting point fell in the range of 81 to 82 °C.

`Cc1ccc2cccc(OCc3c(Cl)ccc(S(N)(=O)=O)c3Cl)c2n1` displayed a melting point of 206 to 208 °C.

In turn, `Cc1cccc(C(C)C)c1NC(=O)Nc1c(C)nc(-c2ccccc2)nc1-c1ccccc1Cl` gave a melting point of 266 to 267 °C.

`Cc1cccnc1-c1cncc(OC2SCC(O)C(O)C2O)c1` (stereo unspecified) came in with a melting point of 162 to 175 °C.

For the compound `COc1ccc2oc(=O)c(S(=O)(=O)Nc3ccc(F)c(N)c3)cc2c1`, the melting point fell in the range of 255 to 260 °C.

On to `CN1CCN(C2=Nc3ccc(Cl)cc3S(=O)(=O)N2)CC1`, for which the melting point is > 300 °C.

For `FC(F)(F)CN1CCN=C(c2ccccc2)c2cc(Cl)ccc21`, the melting point was 164 to 165 °C.

On to `N#Cc1cccc(-c2nc(Nc3ccc(C(=O)O)cc3)sc2-c2ccnnc2)c1`, for which the melting point was > 275 °C.

In turn, `O=c1[nH]c(C2CCNCC2)nc2ccccc12` yielded a melting point of 244 to 245 °C.

Compound `Cc1cn2nc(Cl)ccc2n1` showed a melting point of 131 °C.

With `CCc1nc2c(C)cc(C)nc2n1Cc1ccc2oc(-c3cccc(F)c3C(=O)O)c(Br)c2c1`, the melting point was in the range of 191 to 194 °C.

Compound `O=C(O)CCc1conc1-c1ccc(-c2ccccc2)cc1` registered a melting point of 169 to 170 °C.

In the case of `CN1CCCC(n2nc(-c3c(-c4ccccc4)nn4ccccc34)ccc2=O)C1` (stereo unspecified), the melting point fell in the range of 126 to 127 °C.

Regarding `O=C(CCCCOc1ccc(C2=NCCO2)cc1)c1ccc(Cl)s1`, the melting point lay within 143 to 144 °C.

`O=S(=O)(NC1(CO)CCCC1)c1ccc2c(Cl)cnc(Cl)c2c1` gave a melting point of 148 to 150 °C.

Consider `Cc1csc2[nH]c(=O)oc(=O)c12`, for which the melting point stood at 220 °C.

With `CNN1c2c(cc(Oc3ccc(F)cc3F)c(=O)n2NC)C=NC1S(=O)Cc1ccccc1` (stereo unspecified), the melting point is 80.5 to 89.9 °C.

For the compound `CCCCOC(=O)CCCCSc1cc(C)nc(N)n1`, the melting point lay within 45 to 47 °C.

`Cc1csc2[nH]c(=O)nc(-c3ccccc3F)c12` had a melting point of 258 to 261 °C.

For the compound `CON=C(c1nnn[nH]1)c1ccccc1COc1cc(C)ccc1C`, the melting point fell in the range of 168 to 170 °C.

Compound `CSc1nc(C)ccc1NC(=O)CCCCCCCCBr` came in with a melting point of 80 to 82 °C.

On to `CCC1CC2C3CCC4=CC(=O)CCC4C3CCC2(C)C1OC(=O)COC(C)=O` (stereo unspecified), for which the melting point is 98 to 100 °C.

Compound `CN(C)c1nc2ncnc(NCc3ccco3)c2[nH]1` returned a melting point of 245 to 246 °C.

As to `O=C1c2ccccc2C(=O)N1Cc1cccc(CN2C(=O)c3ccccc3C2=O)n1`, the melting point is > 250 °C.

`C[C@H](N)C(=O)N(C(=O)OCc1ccccc1)c1ccccc1`: the melting point lay in the range of 161 to 163 °C.

The compound `CCn1cc(C(N)=O)c(=O)c2ccc(-c3ccccn3)cc21` showed a melting point of 245 to 246 °C.

As to `OCc1nn(C(c2ccccc2)(c2ccccc2)c2ccccc2)c2ccccc12`, the melting point fell in the range of 192 to 193 °C.

`CCOc1nn(Cc2ccc(OCc3cn4c(OCC)cccc4n3)cc2)cc1CCC(=O)O` yielded a melting point of 197 to 198 °C.

Compound `CCCC[C@H](NS(=O)(=O)c1ccc(Br)cc1)C(=S)Nc1ccc(CCC(=O)O)cc1` returned a melting point of 174 to 176 °C.

Compound `COC1(C(=O)Nc2ccc(OC(C)C)c(Cl)c2)CC1` yielded a melting point of 86 to 87 °C.

Compound `COc1ccc(NC(=S)Nc2cscc2C)c(N)c1` displayed a melting point of 143 to 146 °C.

`O=C(C=Cc1ccccc1)Nc1ccc(C(c2ccc(Cl)cc2)n2ccnc2)cc1` (stereo unspecified): the melting point was 244 °C.

With `O=Cc1nc(-c2ccccc2)c(-c2ccccc2)n1Cc1ccccc1`, the melting point was in the range of 146 to 147 °C.

For the compound `CC1(O)c2ccccc2C=C(Br)c2ccncc21` (stereo unspecified), the melting point was in the range of 226 to 230 °C.

As for `CCOc1cc(Cl)ccc1-c1nc2n(C3CCCC3)[nH]c(CC)c-2c(=O)n1`, the melting point was 185 to 187 °C.

On to `O=C(OCC1CCc2c(O)cccc2C1)N(c1ccccc1)c1ccccc1` (stereo unspecified), for which the melting point lay within 96 to 98 °C.

For the compound `CC(C)(C)NCC(O)COc1ccc(-c2nc(-c3ccccc3)c[nH]2)cc1` (stereo unspecified), the melting point is 176 to 178 °C.

As for `Cc1nc2cc(O)c(C)cc2o1`, the melting point lay within 198 to 200 °C.

The compound `CCOC(=O)c1c[nH]c2cc(Cl)ncc2c1=O` displayed a melting point of 300 °C.

Turning to `Cn1nc2c3c(c(Cl)ccc31)C(=O)c1cnccc1-2`, the melting point lay within 244 to 245 °C.

`COc1ccc(-c2ccccc2-c2c(Cl)nc3ncnn3c2Cl)c(Cl)c1`: the melting point came out at 163 °C.

`CS(=O)(=O)Nc1cncc(C(=NCCc2ccccc2Cl)NC#N)c1` came in with a melting point of 205 °C.

On to `Clc1ccc(-c2cccc3[nH]c4c(c23)CCN(Cc2ccccc2)CC4)c(Cl)c1`, for which the melting point is 194 to 196 °C.

As to `CS(=O)(=O)N[C@H]1C[C@H](C(=O)O)Nc2cc(Cl)cc(Cl)c21` (relative stereo), the melting point was in the range of 194 to 195 °C.

Compound `CCn1cc(C(=O)O)c(=O)c2cc3cc(F)c(N4CCNC(c5ccc(F)cc5)C4)cc3nc21` (racemic) displayed a melting point of 298 °C.

Take `CC(C)N1C(CN2CCOCC2)=Cc2cc(S(N)(=O)=O)sc2S1(=O)=O`: the melting point lay in the range of 196 to 198 °C.

Consider `CCCNC(=S)Nc1sccc1C(=O)OC`, for which the melting point lay within 123 to 126 °C.
